Test results: patent publication US8613931B2, “Compounds for treating beta-amyloidoses” (Affiris AG, priority 2008, dated 2013)
Square brackets hold non-standard residues; d marks the D form. Ends that are not written are not given here. pGlu = O=C1CC[C@@H](C(=O)O)N1

What was measured:
[1] = tested on: p4373; experiment: Mimotope vaccination, serum reactivity against p4373; format: in vivo, C57/bl6 mice; details: sera of mice s.c. immunized with 30 μg peptide coupled to KLH, alum
Description: (§1) Inhibiting as well as non-inhibiting peptides were coupled to KLH and injected into mice (wildtype C57/Bl6 mice; subcutaneous injection into the flank) together with an appropriate adjuvant (aluminium hydroxide). Animals were vaccinated 3-6 times in biweekly intervals and sera were taken biweekly as well. Titers to injected peptides, as well as to an irrelevant peptide were determined with every serum. Furthermore, titers against the recombinant human Aβ protein, and against original peptides were determined respectively. In general sera were analysed by reaction against peptides coupled to Bovine Serum Albumin (BSA) and recombinant full length proteins which were immobilised on ELISA plates. Titers were determined using anti mouse IgG specific antibodies. For detailed results see FIGS. 6, 7 and 8 respectively.
(§2) Female C57/bl6 mice, 5-6 mice per group, were subcutaneously immunized with 30 μg peptide coupled to KLH. Control groups were administered original epitope-KLH conjugates respectively. As adjuvant alum was used (always 1 mg per mouse). […] The in vitro ELISA assay to determine the antibody titer was performed with sera of single mice after each vaccination in a two week interval (see FIGS. 6 and 7 respectively). The wells of the ELISA plate were coated with mimotope-BSA conjugate and an irrelevant peptide-BSA conjugate (negative control). […]

[2] = tested on: p4371; experiment: Mimotope vaccination, serum reactivity against p4371; format: in vivo, C57/bl6 mice; details: sera of mice s.c. immunized with 30 μg peptide coupled to KLH, alum
Description: as §1, §2

[3] = tested on: monoclonal antibody MV-003; experiment: In vitro binding assay (ELISA), parental antibody MV-003; set-up: species or system BalbC mice; details: peptide-BSA on ELISA plate; OD halfmax, dilution factor 1:X of parental AB MV-003
Description: 1. In vitro binding assay (ELISA)
Peptides derived from Phage Display as well as variants thereof were coupled to BSA and bound to ELISA plates (1 μM; as indicated in the respective figures) and subsequently incubated with the monoclonal antibody that was used for the screening procedure to analyse binding capacity of identified peptides.

[4] = tested on: monoclonal antibody MV-003; experiment: In vitro inhibition assay (ELISA), MV-003 binding to original epitope; set-up: species or system BalbC mice; details: OD at 10 μg peptide compared to original peptide
Description: 2. In vitro inhibition assay (ELISA)
Different amounts of peptides (concentrations ranging from 10 μg to 0.08 μg; serial dilutions), derived from Phage Display were incubated with the monoclonal antibody that was used for the screening procedure. Peptides diminishing subsequent binding of the antibody to the original epitope coated on ELISA plates were considered as inhibiting in this assay.

## EFRHDS-C (EFRHDSC) [p4371]
[1]
  immune response against p4373: mount relevant titers

## p(E)FRHDS-C ([pGlu]FRHDSC) [p4373]
[2]
  immune response against p4371: mount relevant titers

## IRWDTSLC [p4728]
[3]
  Binding Capacity: 3 (strong binding :>60000)
[4]
  Inhibition Capacity: 2 (strong inhibition (as original epitope; OD of 10 μg peptide below 5 times of original peptide))
